Assay results published in ChEMBL document CHEMBL1201862, “PubChem BioAssay data set” (2004).
Values joined by “and” are separate entries in the source; they are usually repeats but may differ in a detail not shown here. Equal entries are not always repeated.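 Assay format: 96-well plates, 48-hour exposure. GI50 marks 50% less growth.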 Active and inactive are the calls of the source. Rule as the data show it: active = GI50 up to about 1.1 µM and inactive = higher.

Tests used:
Experiment in all cases: DTP human tumour cell line panel, 48 h
MDA-MB-231 = tested on: MDA-MB-231
M14 = tested on: M14
KM12 = tested on: KM12
OVCAR-5 = tested on: OVCAR-5
HOP-62 = tested on: HOP-62
OVCAR-3 = tested on: OVCAR-3
LOX IMVI = tested on: LOX IMVI
COLO 205 = tested on: COLO 205
SW-620 = tested on: SW-620
U-251 = tested on: U-251
OVCAR-8 = tested on: OVCAR-8
CAKI-1 = tested on: CAKI-1
RPMI-8226 = tested on: RPMI-8226
RXF 393 = tested on: RXF 393
DU-145 = tested on: DU-145
HL-60 = tested on: HL-60
NCI/ADR-RES = tested on: NCI/ADR-RES
HT-29 = tested on: HT-29
SR = tested on: SR

SMILES	GI50 (MDA-MB-231)	GI50 (M14)	GI50 (KM12)	GI50 (OVCAR-5)	GI50 (HOP-62)	GI50 (OVCAR-3)	GI50 (LOX IMVI)	GI50 (COLO 205)	GI50 (SW-620)	GI50 (U-251)	GI50 (OVCAR-8)	GI50 (CAKI-1)	GI50 (RPMI-8226)	GI50 (RXF 393)	GI50 (DU-145)	GI50 (HL-60)	GI50 (NCI/ADR-RES)	GI50 (HT-29)	GI50 (SR)
COC(=O)[C@H](Cc1c[nH]c2ccccc12)NP(=O)(O)OC[C@H]1O[C@@H](n2cc(C)c(=O)[nH]c2=O)C[C@@H]1N=[N+]=[N-]	> 100 µM (inactive)	> 100 µM (inactive)	> 100 µM (inactive)	> 100 µM (inactive)	> 100 µM (inactive)	> 100 µM (inactive)	> 100 µM (inactive)	> 100 µM (inactive)	> 100 µM (inactive)	> 100 µM (inactive)	> 100 µM (inactive)	> 100 µM (inactive)	> 100 µM (inactive)	> 100 µM (inactive)	> 100 µM (inactive)	> 100 µM (inactive)	> 100 µM (inactive)	> 100 µM (inactive)	
CC(C)(C)C1=C(Br)C(F)(C(C)(C)C)OP1(=O)c1ccccc1 (stereo unspecified)		14.8 µM (inactive)	18.9 µM (inactive)	20.2 µM (inactive)	16.3 µM (inactive)	15.5 µM (inactive)	19.3 µM (inactive)	16 µM (inactive)	17.5 µM (inactive)	17.5 µM (inactive)	21.6 µM (inactive)	13 µM (inactive)	< 0.01 µM (active)	11.1 µM (inactive)	18 µM (inactive)	2.79 µM (inactive)	16.4 µM (inactive)	19 µM (inactive)	11.9 µM (inactive)
COC(=O)C1c2cc3c(cc2C(OC2OC(C)C(OC)C(C)(OC)C2OC)CC1(C)O)C(=O)c1c(O)cc2c(c1C3=O)OC1OC2(C)C(O)C([N+](C)(C)[O-])C1O (stereo unspecified)	0.469 µM (active)	0.482 µM (active)	0.154 µM (active)	1.48 µM (inactive)	0.336 µM (active)	0.658 µM (active)	0.0354 µM (active)	0.0634 µM (active)	0.0845 µM (active)	0.0386 µM (active)	0.0927 µM (active)	0.938 µM (active)	0.122 µM (active)	0.179 µM (active)	0.275 µM (active)	0.286 µM (active)		0.173 µM (active)	0.305 µM (active)
O=C(O)CCC(=O)Nc1ccc2ccccc2c1	> 100 µM (inactive)	> 100 µM (inactive)	> 100 µM (inactive)	> 100 µM (inactive)	> 100 µM (inactive)	> 100 µM (inactive)	> 100 µM (inactive)	> 100 µM (inactive)	> 100 µM (inactive)	> 100 µM (inactive)	> 100 µM (inactive)	> 100 µM (inactive)	> 100 µM (inactive)	> 100 µM (inactive)	> 100 µM (inactive)	> 100 µM (inactive)	> 100 µM (inactive)	> 100 µM (inactive)	
CCOC(=O)/C=C(/C(=O)OCC)n1cc(C)c(=O)n(Cc2cnnn2CCCCOC(C)=O)c1=O	64.6 µM (inactive)		44.2 µM (inactive)	19.6 µM (inactive)	> 100 µM (inactive)	16.8 µM (inactive)	18.4 µM (inactive)	3.54 µM (inactive)	5.55 µM (inactive)	32.4 µM (inactive)	22.8 µM (inactive)	5.79 µM (inactive)	17.1 µM (inactive)	33.3 µM (inactive)	> 100 µM (inactive)		26.7 µM (inactive)	19.2 µM (inactive)	
COc1ccccc1/C=C(/C)[N+](=O)[O-]	3.43 µM (inactive) and 4.86 µM (inactive)	1.37 µM (inactive) and 1.21 µM (inactive)	2.96 µM (inactive) and 1.74 µM (inactive)		1.81 µM (inactive) and 3.37 µM (inactive)	1.32 µM (inactive) and 1.09 µM (active)		3.05 µM (inactive) and 1.83 µM (inactive)	2.43 µM (inactive) and 2.02 µM (inactive)	1.68 µM (inactive) and 1.79 µM (inactive)	1.79 µM (inactive) and 2.12 µM (inactive)				1.02 µM (active) and 1.04 µM (active)	1.88 µM (inactive) and 1.21 µM (inactive)	3.44 µM (inactive) and 2.65 µM (inactive)	3.65 µM (inactive) and 3.44 µM (inactive)	
O=P1(c2ccccc2)c2ccccc2CCc2ccccc21	80.7 µM (inactive)	70 µM (inactive)	56.1 µM (inactive)		> 100 µM (inactive)	40.8 µM (inactive)	> 100 µM (inactive)	> 100 µM (inactive)	> 100 µM (inactive)		> 100 µM (inactive)	34.2 µM (inactive)	50.6 µM (inactive)	44.4 µM (inactive)	72.8 µM (inactive)	16.6 µM (inactive)			
Cc1c2c(OCC3CCCCO3)nn(C)c(=O)c2c(C)n1-c1ccccc1 (stereo unspecified)	17.7 µM (inactive)	19.1 µM (inactive)	18.6 µM (inactive)	17.4 µM (inactive)	19.2 µM (inactive)	16.7 µM (inactive)	17.7 µM (inactive)	17.4 µM (inactive)		17.4 µM (inactive)	19.9 µM (inactive)	21.5 µM (inactive)	31.3 µM (inactive)	16 µM (inactive)	17.7 µM (inactive)		21.3 µM (inactive)	31.6 µM (inactive)	
